Experimental data published in US9908897B2, “Spirocyclic derivatives” (CHRONOS THERAPEUTICS LIMITED, priority 2014, dated 2018).

Assays:
[1] = biological target: human norepinephrine transporter (NET) (Homo sapiens (Human), UniProt P23975); assay: Scintillation Proximity Assay (SPA) competition binding, human NET; conditions: recombinant hNET-CHO membranes, [3H]nisoxetine
[2] = biological target: human dopamine transporter (DAT) (Homo sapiens (Human), UniProt Q01959); assay: Scintillation Proximity Assay (SPA) competition binding, human DAT; conditions: recombinant hDAT-CHO membranes, [3H]WIN-35,428
Sequence of human dopamine transporter (DAT) (Q01959 whole entry): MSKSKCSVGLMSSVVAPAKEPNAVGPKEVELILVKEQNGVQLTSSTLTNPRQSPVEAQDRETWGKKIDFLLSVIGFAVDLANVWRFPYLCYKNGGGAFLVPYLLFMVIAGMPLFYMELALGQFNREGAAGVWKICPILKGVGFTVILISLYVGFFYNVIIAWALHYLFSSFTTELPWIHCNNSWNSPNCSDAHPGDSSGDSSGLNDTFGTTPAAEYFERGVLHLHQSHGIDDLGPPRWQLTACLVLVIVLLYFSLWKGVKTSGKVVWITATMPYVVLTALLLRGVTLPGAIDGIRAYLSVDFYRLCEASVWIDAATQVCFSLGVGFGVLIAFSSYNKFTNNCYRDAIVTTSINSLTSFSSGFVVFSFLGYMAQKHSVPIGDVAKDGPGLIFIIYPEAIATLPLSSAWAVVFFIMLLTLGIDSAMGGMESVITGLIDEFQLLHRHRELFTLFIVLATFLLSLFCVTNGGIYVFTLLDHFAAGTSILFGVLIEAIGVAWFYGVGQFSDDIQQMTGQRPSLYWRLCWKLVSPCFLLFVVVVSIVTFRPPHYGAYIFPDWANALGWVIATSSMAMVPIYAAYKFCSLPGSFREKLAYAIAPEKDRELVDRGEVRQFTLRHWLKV
Procedure, shortened: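 SPA binding on membranes from CHO cells stably expressing human DAT, with 5 nM [3H]WIN-35,428, WGA-PVT beads and 0.02% BSA in HEPES/NaCl/KCl buffer pH 7.4.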

[3] = biological target: human ERG potassium channel (hERG) (Homo sapiens (Human), UniProt Q12809); assay: hERG tail current recording, Rapid ICE automated patch-clamp; assay type: cell-based; conditions: HEK293 cells stably transfected with hERG
Sequence of human ERG potassium channel (hERG) (Q12809 whole entry): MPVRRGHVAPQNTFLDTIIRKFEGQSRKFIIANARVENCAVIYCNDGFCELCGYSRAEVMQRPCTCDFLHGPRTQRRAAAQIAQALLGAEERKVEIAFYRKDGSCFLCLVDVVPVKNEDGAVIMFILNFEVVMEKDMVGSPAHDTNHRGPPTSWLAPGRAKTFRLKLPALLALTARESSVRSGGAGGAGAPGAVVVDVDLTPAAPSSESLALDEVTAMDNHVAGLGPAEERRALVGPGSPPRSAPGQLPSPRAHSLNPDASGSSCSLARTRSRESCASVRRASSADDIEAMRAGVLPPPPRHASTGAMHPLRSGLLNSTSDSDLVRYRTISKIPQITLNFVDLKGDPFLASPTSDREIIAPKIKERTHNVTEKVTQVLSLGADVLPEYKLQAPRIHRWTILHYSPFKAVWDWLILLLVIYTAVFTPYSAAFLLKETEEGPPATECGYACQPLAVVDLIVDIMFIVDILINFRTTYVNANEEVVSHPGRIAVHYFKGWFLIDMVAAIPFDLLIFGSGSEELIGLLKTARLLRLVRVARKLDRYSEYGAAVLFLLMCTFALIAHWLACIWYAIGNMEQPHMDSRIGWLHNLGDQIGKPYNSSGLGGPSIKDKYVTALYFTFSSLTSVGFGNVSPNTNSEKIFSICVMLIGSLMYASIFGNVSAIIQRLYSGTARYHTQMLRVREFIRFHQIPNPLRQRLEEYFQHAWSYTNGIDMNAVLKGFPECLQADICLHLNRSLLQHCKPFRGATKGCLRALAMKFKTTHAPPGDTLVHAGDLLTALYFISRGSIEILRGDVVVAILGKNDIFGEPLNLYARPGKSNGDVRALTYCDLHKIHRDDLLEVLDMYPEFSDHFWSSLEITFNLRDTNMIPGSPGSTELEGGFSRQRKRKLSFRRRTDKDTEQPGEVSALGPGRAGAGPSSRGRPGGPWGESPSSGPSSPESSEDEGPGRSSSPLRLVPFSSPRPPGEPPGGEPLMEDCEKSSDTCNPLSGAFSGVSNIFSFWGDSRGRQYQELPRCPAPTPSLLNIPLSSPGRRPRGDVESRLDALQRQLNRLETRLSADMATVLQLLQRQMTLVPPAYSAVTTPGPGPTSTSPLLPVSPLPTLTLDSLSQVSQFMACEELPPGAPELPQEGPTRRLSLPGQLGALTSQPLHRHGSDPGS
Method: Measure of the Effect on hERG Channel by Tail Current Recording Using In Vitro Rapid ICE™
The potency of the compounds of the invention in inhibiting human ERG potassium channel (hERG) tail current is assessed in a recombinant HEK293 cell line stably transfected with hERG cDNA using Rapid ICE™ (Rapid Ion Channel Electrophysiology) assay. Rapid ICE™ is an automated patch-clamp assay utilizing the PatchXpress 7000A system (Molecular Devices Corporation) or the QPatch HTX system (Sophion Bioscience A/S).
Briefly cells are cultivated for 24 to 72 hours before recordings in minimum essential medium supplemented with 10% FBS, 1% non-essential amino acids, 1% sodium pyruvate, 2 mM L-glutamine. The day of the experiment cells are detached with TrypLE and prepared to be loaded on the instrument. For PatchXpress cells are finally resuspended in 150 μl of Extracellular Buffer whereas for QPatch cells are resuspended in 7 ml Serum-Free Media containing 25 mM Hepes and Soybean trypsin inhibitor and immediately placed in the cell storage tank of the machine. The composition of the Extracellular Buffer is (mM): NaCl 137; KCl 4; CaCl2 1.8; MgCl2 1.0; D-glucose 10; N 2 hydroxyethylpiperazine-N′-2-ethanesulfonic acid (HEPES) 10; pH 7.4 with 1 M NaOH. The composition of the pipette solution is (mM): KCl 130; MgCl2 1.0; Ethylene glycol-bis(β-aminoethyl ether)-N,N,N′,N′-tetraacetic acid (EGTA) 5; MgATP 5; HEPES 10; pH 7.2 with 1 M KOH. The voltage protocol includes the following steps: step from −80 mV to −50 mV for 200 ms, +20 mV for 4.8 s, step to −50 mV for 5 s then step to the holding potential of −80 mV. Compounds of the invention are dissolved in DMSO and diluted in Extracellular Buffer to achieve final test concentrations (0.1, 1 and 10 μM) in 0.1% DMSO. The voltage protocol is run and recorded continuously during the experiment. The vehicle, corresponding to 0.1% DMSO in Extracellular Buffer, is then applied for 3 min followed by the test substance in triplicate. The standard combined exposure time is 5 min. The average of tail current amplitude values recorded from 4 sequential voltage pulses is used to calculate for each cell the effect of the test substance by calculating the residual current (% control) compared with vehicle pre-treatment. Data are reported as % inhibition for each concentration tested and IC50 values are estimated using DataXpress or QPatch software. At least two cells are tested, more if results diverge.

[4] = biological target: human serotonin transporter (SERT) (Homo sapiens (Human), UniProt P31645); assay: Scintillation Proximity Assay (SPA) competition binding, human SERT; conditions: recombinant hSERT-CHO membranes, [3H]citalopram
Sequence of human serotonin transporter (SERT) (P31645 whole entry): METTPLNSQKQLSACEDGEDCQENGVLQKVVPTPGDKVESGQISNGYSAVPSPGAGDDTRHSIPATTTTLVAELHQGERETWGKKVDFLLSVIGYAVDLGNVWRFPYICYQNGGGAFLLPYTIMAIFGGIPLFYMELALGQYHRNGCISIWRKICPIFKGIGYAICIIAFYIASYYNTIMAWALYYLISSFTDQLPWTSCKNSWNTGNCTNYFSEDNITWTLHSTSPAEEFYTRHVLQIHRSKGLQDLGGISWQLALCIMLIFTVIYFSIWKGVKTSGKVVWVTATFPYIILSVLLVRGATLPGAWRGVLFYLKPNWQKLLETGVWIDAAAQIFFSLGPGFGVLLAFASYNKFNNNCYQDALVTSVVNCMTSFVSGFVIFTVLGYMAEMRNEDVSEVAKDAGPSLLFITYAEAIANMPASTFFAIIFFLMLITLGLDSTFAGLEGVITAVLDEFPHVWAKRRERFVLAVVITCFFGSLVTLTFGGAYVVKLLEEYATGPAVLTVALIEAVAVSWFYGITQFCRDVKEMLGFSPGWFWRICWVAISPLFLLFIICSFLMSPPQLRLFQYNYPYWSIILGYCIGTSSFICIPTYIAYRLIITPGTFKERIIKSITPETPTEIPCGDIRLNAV

Sequence of human norepinephrine transporter (NET) (P23975 whole entry): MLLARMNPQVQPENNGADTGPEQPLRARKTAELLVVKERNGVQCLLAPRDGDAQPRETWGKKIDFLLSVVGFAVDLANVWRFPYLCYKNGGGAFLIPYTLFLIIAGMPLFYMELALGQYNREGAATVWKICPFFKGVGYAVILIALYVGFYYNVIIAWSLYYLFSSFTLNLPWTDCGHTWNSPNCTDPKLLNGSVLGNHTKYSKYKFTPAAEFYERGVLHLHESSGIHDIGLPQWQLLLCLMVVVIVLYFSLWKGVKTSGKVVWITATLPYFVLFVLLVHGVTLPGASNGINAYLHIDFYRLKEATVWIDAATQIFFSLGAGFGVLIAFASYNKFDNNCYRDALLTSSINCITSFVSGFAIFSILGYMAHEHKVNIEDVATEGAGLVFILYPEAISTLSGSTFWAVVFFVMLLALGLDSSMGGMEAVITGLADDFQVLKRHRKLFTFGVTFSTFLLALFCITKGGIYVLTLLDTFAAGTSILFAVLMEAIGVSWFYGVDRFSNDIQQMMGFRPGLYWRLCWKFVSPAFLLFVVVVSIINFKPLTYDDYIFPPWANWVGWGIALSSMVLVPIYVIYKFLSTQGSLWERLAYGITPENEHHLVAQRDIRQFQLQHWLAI

Which “pIC50 NET” value [1] does the source give for `O=C1NCC2(CCN(c3nc(Oc4cccc(F)c4)cc(C(F)(F)F)n3)CC2)O1` [Example 89, 8-[4-(3-fluorophenoxy)-6-(trifluoromethyl)pyrimidin-2-yl]-1-oxa-3,8-diazaspiro[4.5]decan-2-one] here?
Its value is 5.66.

And the “pIC50 DAT” value [2]?
The value was 7.73.

What about the “pIC50 hERG” value [3] of the same molecule?
Its value is 5.7.

And the “pIC50 SERT” value [4]?
The value was 4.89.

Which results are given for `Fc1cccc(Oc2cc(F)c(F)cc2N2CCC3(CCNCC3)C2)c1` [Example 90, 2-[4,5-difluoro-2-(3-fluorophenoxy)phenyl]-2,8-diazaspiro[4.5]decane]?
pIC50 NET [1]: 6.85; pIC50 DAT [2]: 8.36; pIC50 hERG [3]: 6.1; pIC50 SERT [4]: 6.31

Which “pIC50 NET” value [1] does the source give for `Fc1cccc(Oc2cc(F)c(F)cc2N2CCC3(CCNC3)CC2)c1` [Example 91, 8-[4,5-difluoro-2-(3-fluorophenoxy)phenyl]-2,8-diazaspiro[4.5]decane] here?
Its value is 6.26.

And the “pIC50 DAT” value [2]?
Its value is 8.01.

And the “pIC50 hERG” value [3]?
Its value is 5.9.

And the “pIC50 SERT” value [4]?
The value was 7.29.

How did the “pIC50 NET” value [1] turn out when `Fc1cccc(Oc2cc(F)cc(N3CCC4(CCNC4)CC3)c2)c1` [Example 92, 8-[3-fluoro-5-(3-fluorophenoxy)phenyl]-2,8-diazaspiro[4.5]decane] was run?
The value was 7.33.

And the “pIC50 DAT” value [2]?
The value was 8.84.

And the “pIC50 hERG” value [3]?
Its value is 6.2.

And the “pIC50 SERT” value [4]?
Its value is 7.37.

What does the source list for `Fc1cccc(Oc2cc(F)c(F)cc2N2CCC3(CCNCC34OCCO4)C2)c1` (stereo not drawn) [Example 93, 8-[4,5-difluoro-2-(3-fluorophenoxy)phenyl]-1,4-dioxa-8,13-diazadispiro[4.0.4^6.4^5]tetradecane]?
pIC50 NET [1]: 6.64; pIC50 DAT [2]: 8.44; pIC50 hERG [3]: 6.0; pIC50 SERT [4]: 6.90

Which results are given for `Cl.Fc1cccc(Oc2cc(C(F)(F)F)nc(N3CCC4(CCNCC45OCCO5)C3)n2)c1` (stereo not drawn) [Example 95, 8-[4-(3-fluorophenoxy)-6-(trifluoromethyl)pyrimidin-2-yl]-1,4-dioxa-8,13-diazadispiro[4.0.4^6.4^5]tetradecane hydrochloride]?
pIC50 NET [1]: 6.09; pIC50 DAT [2]: 8.16; pIC50 hERG [3]: 5.6; pIC50 SERT [4]: 6.29
